Measured values reported in patent US20250257086A1, “EGFR DEGRADATION AGENT” (Beijing Tide Pharmaceutical Co., Ltd., priority 2022, published 2025).

Target: Ba/F3 (EGFR^L858R/T790M/C797S) cells (Homo sapiens, UniProt P00533, T790M/C797S/L858R, cells depend on it)
Test: Antiproliferative activity on Ba/F3 (EGFR L858R/T790M/C797S) cells (CTG)
Assay type: cell-based
Details: 72h incubation, CTG luminescence, read-out: IC50 (nM), antiproliferative activity
Procedure: 30 nL of the compound dilution was added to a 384-well plate by Echo (Labcyte, Echo550).
The percent inhibition rate (% inhibition) was calculated by the following formula
[formula] • LUMcmpd: Luminescence value of assay compound. • LUMpositive: Average LUM value of positive drug with a concentration of 10 μM. • LUMvehicle: Average LUM value of negative control group without drug treatment.
The nonlinear regression curve (dose response-variable slope) between the value of inhibition rate (%) and the logarithm of compound concentration was fitted with graphpad prism 8.0, the effect dose curve of compound was drawn, and the IC50 value was calculated.
Y=Bottom+(Top−Bottom)/(1+10^((Log IC50−X)*HillSlope)) • X-axis: logarithm of compound concentration; Y axis: inhibition rate (% inhibition).

Ba/F3 (EGFR^L858R/T790M/C797S) cells, sequence (P00533 whole entry T790M/C797S/L858R): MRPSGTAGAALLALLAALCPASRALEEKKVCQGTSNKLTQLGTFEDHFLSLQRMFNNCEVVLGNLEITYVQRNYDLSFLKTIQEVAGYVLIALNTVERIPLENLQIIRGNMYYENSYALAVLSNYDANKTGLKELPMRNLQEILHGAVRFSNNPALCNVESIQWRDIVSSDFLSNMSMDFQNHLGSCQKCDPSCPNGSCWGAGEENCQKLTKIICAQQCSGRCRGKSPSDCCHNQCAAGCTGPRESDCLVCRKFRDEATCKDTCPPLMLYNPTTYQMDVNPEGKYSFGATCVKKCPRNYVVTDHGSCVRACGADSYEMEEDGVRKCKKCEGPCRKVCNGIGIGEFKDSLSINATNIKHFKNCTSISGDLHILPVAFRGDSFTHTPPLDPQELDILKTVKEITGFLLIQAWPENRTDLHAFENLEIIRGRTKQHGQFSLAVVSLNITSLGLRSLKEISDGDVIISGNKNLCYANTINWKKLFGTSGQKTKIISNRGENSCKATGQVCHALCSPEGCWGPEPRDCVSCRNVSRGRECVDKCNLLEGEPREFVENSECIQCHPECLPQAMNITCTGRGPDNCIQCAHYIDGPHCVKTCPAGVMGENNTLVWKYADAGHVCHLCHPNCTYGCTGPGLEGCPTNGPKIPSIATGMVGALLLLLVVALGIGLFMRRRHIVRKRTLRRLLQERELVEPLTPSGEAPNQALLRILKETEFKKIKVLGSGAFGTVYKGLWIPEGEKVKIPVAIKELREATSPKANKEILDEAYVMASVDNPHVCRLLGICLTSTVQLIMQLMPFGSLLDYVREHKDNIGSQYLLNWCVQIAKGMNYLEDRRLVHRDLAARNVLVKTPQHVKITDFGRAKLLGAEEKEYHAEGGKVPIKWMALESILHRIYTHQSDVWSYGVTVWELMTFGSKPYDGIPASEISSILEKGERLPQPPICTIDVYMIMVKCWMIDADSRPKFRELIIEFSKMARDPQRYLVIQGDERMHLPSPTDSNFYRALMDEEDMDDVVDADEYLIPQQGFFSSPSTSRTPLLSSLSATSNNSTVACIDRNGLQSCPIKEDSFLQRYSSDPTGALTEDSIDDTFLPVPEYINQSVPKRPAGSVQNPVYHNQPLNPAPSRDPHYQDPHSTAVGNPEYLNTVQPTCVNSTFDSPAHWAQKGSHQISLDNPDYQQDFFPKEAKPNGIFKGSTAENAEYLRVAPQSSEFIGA

Structure (SMILES)	GI50
CC#CC(=O)Nc1cc(Nc2ncc(Br)c(Nc3ccccc3P(C)(C)=O)n2)c(OC)cc1N1CCC(N2CCN(CCCC#Cc3cccc4c3CN(C3CCC(=O)NC3=O)C4=O)CC2)CC1 (stereo not shown) [Compound D604, N-(5-((5-bromo-4-((2-(dimethylphosphoryl)phenyl)amino)pyrimidin-2-yl)amino)-2-(4-(4-(5-(2-(2,6-dioxopiperidin-3-yl)-1-oxoisoindolin-4-yl)pent-4-yn-1-yl)piperazin-1-yl)piperidin-1-yl)-4-methoxyphenyl)but-2-ynamide]	44.4 nM
COc1cc(N2CCC(N3CCN(CCCCC#Cc4cccc5c4CN(C4CCC(=O)NC4=O)C5=O)CC3)CC2)c(NC(=O)/C=C/C(F)(F)F)cc1Nc1ncc(Cl)c(Nc2ccccc2P(C)(C)=O)n1 (stereo not shown) [Compound D620, N-(5-((5-chloro-4-((2-(dimethylphosphoryl)phenyl)amino)pyrimidin-2-yl)amino)-2-(4-(4-(6-(2-(2,6-dioxopiperidin-3-yl)-1-oxoisoindolin-4-yl)hex-5-yn-1-yl)piperazin-1-yl)piperidin-1-yl)-4-methoxyphenyl)-4,4,4-trifluorobut-2-enamide]	46.7 nM
COc1cc(N2CCC(N3CCN(CCCC#Cc4ccc5c(c4)CN(C4CCC(=O)NC4=O)C5=O)CC3)CC2)c(NC(=O)/C=C/C(F)(F)F)cc1Nc1ncc(Cl)c(Nc2ccccc2P(C)(C)=O)n1 (stereo not shown) [Compound D622, N-(5-((5-chloro-4-((2-(dimethylphosphoryl)phenyl)amino)pyrimidin-2-yl)amino)-2-(4-(4-(5-(2-(2,6-dioxopiperidin-3-yl)-1-oxoisoindolin-5-yl)pent-4-yn-1-yl)piperazin-1-yl)piperidin-1-yl)-4-methoxyphenyl)-4,4,4-trifluorobut-2-enamide]	258 nM
COc1cc(N2CCC(N3CCN(CCCCC#Cc4ccc5c(c4)CN(C4CCC(=O)NC4=O)C5=O)CC3)CC2)c(NC(=O)/C=C/C(F)(F)F)cc1Nc1ncc(Cl)c(Nc2ccccc2P(C)(C)=O)n1 (stereo not shown) [Compound D623, N-(5-((5-chloro-4-((2-(dimethylphosphoryl)phenyl)amino)pyrimidin-2-yl)amino)-2-(4-(4-(6-(2-(2,6-dioxopiperidin-3-yl)-1-oxoisoindolin-5-yl)hex-5-yn-1-yl)piperazin-1-yl)piperidin-1-yl)-4-methoxyphenyl)-4,4,4-trifluorobut-2-enamide]	94.3 nM
COc1cc(N2CCC(N3CCN(CCCC#Cc4cccc5c4CN(C4CCC(=O)NC4=O)C5=O)CC3)CC2)c(NC(=O)C#CCO)cc1Nc1ncc(Cl)c(Nc2ccccc2P(C)(C)=O)n1 (stereo not shown) [Compound D628, N-(5-((5-chloro-4-((2-(dimethylphosphoryl)phenyl)amino)pyrimidin-2-yl)amino)-2-(4-(4-(5-(2-(2,6-dioxopiperidin-3-yl)-1-oxoisoindolin-4-yl)pent-4-yn-1-yl)piperazin-1-yl)piperidin-1-yl)-4-methoxyphenyl)-4-hydroxybut-2-ynamide]	325 nM
CCCC#CC(=O)Nc1cc(Nc2ncc(Cl)c(Nc3ccccc3P(C)(C)=O)n2)c(OC)cc1N1CCC(N2CCN(CCCC#Cc3cccc4c3CN(C3CCC(=O)NC3=O)C4=O)CC2)CC1 (stereo not shown) [Compound D631, N-(5-((5-chloro-4-((2-(dimethylphosphoryl)phenyl)amino)pyrimidin-2-yl)amino)-2-(4-(4-(5-(2-(2,6-dioxopiperidin-3-yl)-1-oxoisoindolin-4-yl)pent-4-yn-1-yl)piperazin-1-yl)piperidin-1-yl)-4-methoxyphenyl)hex-2-ynamide]	48.1 nM
COc1cc(N2CCC(N3CCN(CCCC#Cc4cccc5c4CN(C4CCC(=O)NC4=O)C5=O)CC3)CC2)c(NC(=O)C=C(C)C)cc1Nc1ncc(Cl)c(Nc2ccccc2P(C)(C)=O)n1 (stereo not shown) [Compound D633, N-(5-((5-chloro-4-((2-(dimethylphosphoryl)phenyl)amino)pyrimidin-2-yl)amino)-2-(4-(4-(5-(2-(2,6-dioxopiperidin-3-yl)-1-oxoisoindolin-4-yl)pent-4-yn-1-yl)piperazin-1-yl)piperidin-1-yl)-4-methoxyphenyl)-3-methylbut-2-enamide]	56.5 nM
CC#CC(=O)Nc1cc(Nc2ncc(Cl)c(Nc3ccccc3P(C)(C)=O)n2)ccc1N1CCC(N2CCN(CCCC#Cc3cccc4c3CN(C3CCC(=O)NC3=O)C4=O)CC2)CC1 (stereo not shown) [Compound D665, N-(5-((5-chloro-4-((2-(dimethylphosphoryl)phenyl)amino)pyrimidin-2-yl)amino)-2-(4-(4-(5-(2-(2,6-dioxopiperidin-3-yl)-1-oxoisoindolin-4-yl)pent-4-yn-1-yl)piperazin-1-yl)piperidin-1-yl)phenyl)but-2-ynamide]	10.3 nM
C=C(F)C(=O)Nc1cc(Nc2ncc(Cl)c(Nc3ccccc3P(C)(C)=O)n2)ccc1N1CCC(N2CCN(CCCC#Cc3cccc4c3CN(C3CCC(=O)NC3=O)C4=O)CC2)CC1 (stereo not shown) [Compound D666, N-(5-((5-chloro-4-((2-(dimethylphosphoryl)phenyl)amino)pyrimidin-2-yl)amino)-2-(4-(4-(5-(2-(2,6-dioxopiperidin-3-yl)-1-oxoisoindolin-4-yl)pent-4-yn-1-yl)piperazin-1-yl)piperidin-1-yl)phenyl)-2-fluoroacrylamide]	13.7 nM
CP(C)(=O)c1ccccc1Nc1nc(Nc2ccc(N3CCC(N4CCN(CCCC#Cc5cccc6c5CN(C5CCC(=O)NC5=O)C6=O)CC4)CC3)c(NC(=O)/C=C/C(F)(F)F)c2)ncc1Cl (stereo not shown) [Compound D667, (E)-N-(5-((5-chloro-4-((2-(dimethylphosphoryl)phenyl)amino)pyrimidin-2-yl)amino)-2-(4-(4-(5-(2-(2,6-dioxopiperidin-3-yl)-1-oxoisoindolin-4-yl)pent-4-yn-1-yl)piperazin-1-yl)piperidin-1-yl)phenyl)-4,4,4-trifluorobut-2-enamide]	18.1 nM
CCCC#CC(=O)Nc1cc(Nc2ncc(Cl)c(Nc3ccccc3P(C)(C)=O)n2)ccc1N1CCC(N2CCN(CCCC#Cc3cccc4c3CN(C3CCC(=O)NC3=O)C4=O)CC2)CC1 (stereo not shown) [Compound D668, N-(5-((5-chloro-4-((2-(dimethylphosphoryl)phenyl)amino)pyrimidin-2-yl)amino)-2-(4-(4-(5-(2-(2,6-dioxopiperidin-3-yl)-1-oxoisoindolin-4-yl)pent-4-yn-1-yl)piperazin-1-yl)piperidin-1-yl)phenyl)hex-2-ynamide]	21.2 nM
C=CC(=O)Nc1cc(Nc2ncc(Cl)c(Nc3ccc4nccnc4c3P(C)(C)=O)n2)c(OC)cc1N1CCC(N2CCN(CCCC#Cc3cccc4c3CN(C3CCC(=O)NC3=O)C4=O)CC2)CC1 (stereo not shown) [Compound D670, N-(5-((5-chloro-4-((5-(dimethylphosphoryl)quinoxalin-6-yl)amino)pyrimidin-2-yl)amino)-2-(4-(4-(5-(2-(2,6-dioxopiperidin-3-yl)-1-oxoisoindolin-4-yl)pent-4-yn-1-yl)piperazin-1-yl)piperidin-1-yl)-4-methoxyphenyl)acrylamide]	25.7 nM
C=C(F)C(=O)Nc1cc(Nc2ncc(Cl)c(Nc3ccc4nccnc4c3P(C)(C)=O)n2)c(OC)cc1N1CCC(N2CCN(CCCC#Cc3cccc4c3CN(C3CCC(=O)NC3=O)C4=O)CC2)CC1 (stereo not shown) [Compound D671, N-(5-((5-chloro-4-((5-(dimethylphosphoryl)quinoxalin-6-yl)amino)pyrimidin-2-yl)amino)-2-(4-(4-(5-(2-(2,6-dioxopiperidin-3-yl)-1-oxoisoindolin-4-yl)pent-4-yn-1-yl)piperazin-1-yl)piperidin-1-yl)-4-methoxyphenyl)-2-fluoroacrylamide]	14.5 nM
CC#CC(=O)Nc1cc(Nc2ncc(Cl)c(Nc3ccc4nccnc4c3P(C)(C)=O)n2)c(OC)cc1N1CCC(N2CCN(CCCC#Cc3cccc4c3CN(C3CCC(=O)NC3=O)C4=O)CC2)CC1 (stereo not shown) [Compound D672, N-(5-((5-chloro-4-((5-(dimethylphosphoryl)quinoxalin-6-yl)amino)pyrimidin-2-yl)amino)-2-(4-(4-(5-(2-(2,6-dioxopiperidin-3-yl)-1-oxoisoindolin-4-yl)pent-4-yn-1-yl)piperazin-1-yl)piperidin-1-yl)-4-methoxyphenyl)but-2-ynamide]	15.1 nM
COc1cc(N2CCC(N3CCN(CCCC#Cc4cccc5c4CN(C4CCC(=O)NC4=O)C5=O)CC3)CC2)c(NC(=O)/C=C/C(F)(F)F)cc1Nc1ncc(Cl)c(Nc2ccc3nccnc3c2P(C)(C)=O)n1 (stereo not shown) [Compound D673, (E)-N-(5-((5-chloro-4-((5-(dimethylphosphoryl)quinoxalin-6-yl)amino)pyrimidin-2-yl)amino)-2-(4-(4-(5-(2-(2,6-dioxopiperidin-3-yl)-1-oxoisoindolin-4-yl)pent-4-yn-1-yl)piperazin-1-yl)piperidin-1-yl)-4-methoxyphenyl)-4,4,4-trifluorobut-2-enamide]	20.6 nM
C=C(F)C(=O)Nc1cc(Nc2ncc(Cl)c(Nc3ccc4c(c3P(C)(C)=O)OCCO4)n2)c(OC)cc1N1CCC(N2CCN(CCCC#Cc3cccc4c3CN(C3CCC(=O)NC3=O)C4=O)CC2)CC1 (stereo not shown) [Compound D682]	14.6 nM
C=CC(=O)Nc1cc(Nc2ncc(Cl)c(Nc3ccc4c(c3P(C)(C)=O)OCCO4)n2)c(OC)cc1N1CCC(N2CCN(CCCC#Cc3cccc4c3CN(C3CCC(=O)NC3=O)C4=O)CC2)CC1 (stereo not shown) [Compound D683]	22.3 nM
COc1cc(N2CCC(N3CCN(CCCC#Cc4cccc5c4CN(C4CCC(=O)NC4=O)C5=O)CC3)CC2)c(NC(=O)/C=C/C(F)(F)F)cc1Nc1ncc(Cl)c(Nc2ccc3c(c2P(C)(C)=O)OCCO3)n1 (stereo not shown) [Compound D684]	24.1 nM
CC#CC(=O)Nc1cc(Nc2ncc(Cl)c(Nc3ccc4c(c3P(C)(C)=O)OCCO4)n2)c(OC)cc1N1CCC(N2CCN(CCCC#Cc3cccc4c3CN(C3CCC(=O)NC3=O)C4=O)CC2)CC1 (stereo not shown) [Compound D685]	22.5 nM
